Consider 2 molecules from patent US20060275289A1, “Preventive or remedy for inflammatory bowel diseases containing anti-cd81 antibody as the active ingredient” (priority 2003, published 2006).

For assay [1], the system named is IBD-pathogenic cells (mesenteric lymph node cells and spleen cells of TNBS colitis mouse stimulated with Staphylococcal enterotoxin B). It is filed as cell-based.
The subject of the next assay is normal mice. Particulars: cells incubated 48 hours with 0.2 μg/ml SEB and 10 μM of compound A (condition C); cited from earlier work.
The subject of the next assay is intracellular IFN-γ. The class given is cell-based, mouse. Particulars: SEB 1 μg/ml.
For assay [2], the system named is TNBS-induced colitis mouse. The experiment in a line: TNBS (2,4,6-trinitrobenzenesulfonic acid)-induced mouse colitis model. It is filed as in vivo. Conditions: antibody 0.1 mg/head i.p. on division day and day 2, SSZ 200 mg/kg orally once daily. Here is the method: 0.5 g of egg albumin (OVA: manufactured by Sigma) and 0.5 g of K2CO3 (manufactured by Nacalai Tesque) were dissolved in 25 ml of distilled water for injection (OVA solution). 0.5 g of 2,4,6-trinitrobenzenesulfonic acid (TNBS: manufactured by Nacalai Tesque) was dissolved in 25 ml of 0.1 M K2CO3 (TNBS solution). The OVA solution and the TNBS solution were mixed, and the mixture was stirred overnight at room temperature. The stirred solution was dialyzed against 0.01 M NaHCO3 (manufactured by Nacalai Tesque) through a dialyzer (Spectra/Por Membrane MWCO:10,000, manufactured by Spectrum Medical Industries Inc.). The dialyzate was subjected to protein quantitative determination by BCA Protein Assay Reagent (manufactured by Pierce).
A 1:1 emulsion of complete Freunt adjuvant (CFA: manufactured by Difco Laboratories) and 2 mg/ml of TNP-OVA was subcutaneously injected (sensitized) into the back of a 5-week-old SJL/J mouse (SJL/JorlIcoCrj, male, supplied by Nippon Charles River) at a rate of 0.1 ml/head. […]
The symptom of colitis from the division day to day 5 after the division was observed. The symptom of colitis was scored according to the conditions of stool [normal stool (score:0), loose stool (score:1) and diarrhea (score:2)]. […]
On the final day of the experiment, after euthanasia with a high concentration of CO2, a large bowel was extracted, and the length thereof was measured. […]

Setting [3] is: rate of compound-reacted cells for 1% of the cell population, 10 μM compound A.

In the case of `Clc1c(C2(c3ccc(N4CCOCC4)cc3)CCC2)nn2c1NCCC2` [compound A, 3-chloro-2-[1-(4-morpholin-4-ylphenyl)cyclobutyl]-4,5,6,7-tetrahydropyrazolo[1,5-a]pyrimidine], in assay [1], the “Gene chip expression signal, CD81 (101495_at)” value turned out to be 195.1; the “Gene chip expression signal, CDw40 (92962_at)” value stood at 63.9; the “Gene chip expression signal, DAP12 (100397_at)” value came to 1144.2; the “Gene chip expression signal, IL-9 (96574_at)” value amounted to 96.4. Besides, in assay [1], the “Gene chip expression signal, IL-10Rβ (99491_at)” value is reported as 1000.9; the “Gene chip expression signal, IL-17 (99349_at)” value stood at 172.4; the “Gene chip expression signal, Integrin β1 (100124_r_at)” value came out at 149.4; the “Gene chip expression signal, Lymphotoxin α (102630_s_at)” value is given as 220.6. Also, in assay [1], the “Gene chip expression signal, Paired-Ig-like receptor Al (100328_s_at)” value came to 791.2; the “Gene chip expression signal, TCRV γ4 (102745_at)” value was found to be 33.1; the “IFN-γ gene expression (DNA chip analysis)” value is “decreased”. Moreover, in the assay with normal mice, the “induction of the symptom of colitis by cells transferred into normal mice” value was “do not induce the symptom of colitis”. Besides, in the assay on intracellular IFN-γ (setting [3]), the “Compound-reacted cells/presence rate, cell surface marker CD3” value amounted to 1.1; the “Compound-reacted cells/presence rate, cell surface marker CD4” value turned out to be 0.8; the “Compound-reacted cells/presence rate, cell surface marker CD40” value was 2.7; the “Compound-reacted cells/presence rate, cell surface marker CD40L in CD3” value is given as 0.8. In the assay on intracellular IFN-γ (setting [3]), the “Compound-reacted cells/presence rate, cell surface marker CD81 in CD3” value was 11.1; the “Compound-reacted cells/presence rate, cell surface marker CD49d” value amounted to 2.4; the “Compound-reacted cells/presence rate, cell surface marker TCRV β3” value stood at 0; the “Compound-reacted cells/presence rate, cell surface marker TCRV γδ” value worked out at 4.4. The “Compound-reacted cells (%), cell surface marker CD40L in CD3” value in the assay with intracellular IFN-γ (share of intracellular IFN-γ-positive cells reduced by compound A (total reduction = 100), 10 μM, presence rate 3.94%) turned out to be 3.3%. Moreover, the “Compound-reacted cells (%), cell surface marker CD81 in CD3” value in the assay with intracellular IFN-γ (share of intracellular IFN-γ-positive cells reduced by compound A (total reduction = 100), 10 μM, presence rate 4.67%) stood at 51.7%. In addition, the “Compound-reacted cells (%), cell surface marker TCRV γδ” value in the assay with intracellular IFN-γ (share of intracellular IFN-γ-positive cells reduced by compound A (total reduction = 100), 10 μM, presence rate 5.39%) was 23.8%. Moreover, the “Compound-reacted cells (%), cell surface marker CD40” value in the assay on intracellular IFN-γ (share of intracellular IFN-γ-positive cells reduced by compound A (total reduction = 100), 10 μM, presence rate 9.14%) is given as 24.3%. Moreover, in the assay on intracellular IFN-γ (share of intracellular IFN-γ-positive cells reduced by compound A (total reduction = 100), 10 μM, presence rate 16.4%), the “Compound-reacted cells (%), cell surface marker CD49d” value amounted to 39.6%. Also, the “Compound-reacted cells (%), cell surface marker CD4” value in the assay on intracellular IFN-γ (share of intracellular IFN-γ-positive cells reduced by compound A (total reduction = 100), 10 μM, presence rate 45.7%) is reported as 55.6%. Moreover, in the assay with intracellular IFN-γ (share of intracellular IFN-γ-positive cells reduced by compound A (total reduction = 100), 10 μM, presence rate 92.1%), the “Compound-reacted cells (%), cell surface marker CD3” value was 103.4%. For the same molecule, the “Compound-reacted cells (%), cell surface marker TCRV β3” value in the assay on intracellular IFN-γ (share of intracellular IFN-γ-positive cells reduced by compound A (total reduction = 100), 10 μM, presence rate 100%) is 0%.

As for `O=C(O)c1cc(/N=N/c2ccc(S(=O)(=O)Nc3ccccn3)cc2)ccc1O` [SSZ, sulfasalazine], the “Intestinal Length mm(S.D)” value in assay [2] (large bowel length, day 5 after division, control 87.8 (10.3), Dunnet test * 0.01<p<0.05, ** p<0.01) is on record as 103.1 (8.3)** mm. The “Symptom of colitis (S.D)” value in assay [2] (stool score 0-2, SJL/J mice, control 1.75 (0.46), Steel test * 0.01<p<0.05) is given as 0.71 (0.71)*.
